According to PubChem BioAssay AID1963972 (Molecular Pharmacology Branch, DTP, NCI, 2024):

Tested on: 945468-187-T-J2-PDC spheroids viability
Assay: Anticancer human tumor 945468-187-T-J2-PDC patient-derived rectal carcinoma cell line growth inhibition [PI3K]
Settings: spheroids with HUVEC and MSC; for IC50: curve of first compound; for viability, T/C: stronger effect = lower value
Outline: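 Agents were dosed from a top concentration near clinical Cmax (otherwise 10 microM) in half-log decrements, alone or combined with PI3K inhibitors. The spheroids contain tumor cells plus endothelial (HUVEC) and MSC stroma; viability is measured.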

[1] = second compound 0.00316 µM, first compound 0.0316 µM
[2] = second compound 0.00316 µM, first compound 0.1 µM
[3] = second compound 0.00316 µM, first compound 0.316 µM
[4] = second compound 0.00316 µM, first compound 1 µM
[5] = second compound 0.00316 µM, first compound 3.16 µM
[6] = second compound 0.00316 µM, first compound 10 µM
[7] = second compound 0.01 µM, first compound 0.0316 µM
[8] = second compound 0.01 µM, first compound 0.1 µM
[9] = second compound 0.01 µM, first compound 0.316 µM
[10] = second compound 0.01 µM, first compound 1 µM
[11] = second compound 0.01 µM, first compound 3.16 µM
[12] = second compound 0.01 µM, first compound 10 µM
[13] = second compound 0.0316 µM, first compound 0.0316 µM
[14] = second compound 0.0316 µM, first compound 0.1 µM
[15] = second compound 0.0316 µM, first compound 0.316 µM
[16] = second compound 0.0316 µM, first compound 1 µM
[17] = second compound 0.0316 µM, first compound 3.16 µM
[18] = second compound 0.0316 µM, first compound 10 µM
[19] = second compound 0.1 µM, first compound 0.0316 µM
[20] = second compound 0.1 µM, first compound 0.1 µM
[21] = second compound 0.1 µM, first compound 0.316 µM
[22] = second compound 0.1 µM, first compound 1 µM
[23] = second compound 0.1 µM, first compound 3.16 µM
[24] = second compound 0.1 µM, first compound 10 µM
[25] = second compound 0.316 µM, first compound 0.0316 µM
[26] = second compound 0.316 µM, first compound 0.1 µM
[27] = second compound 0.316 µM, first compound 0.316 µM
[28] = second compound 0.316 µM, first compound 1 µM
[29] = second compound 0.316 µM, first compound 3.16 µM
[30] = second compound 0.316 µM, first compound 10 µM
[31] = second compound 1 µM, first compound 0.0316 µM
[32] = second compound 1 µM, first compound 0.1 µM
[33] = second compound 1 µM, first compound 0.316 µM
[34] = second compound 1 µM, first compound 1 µM
[35] = second compound 1 µM, first compound 3.16 µM
[36] = second compound 1 µM, first compound 10 µM
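Also: spheroids exposed to compounds for seven days before reading.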

Compound: CC(C)NCC(C(=O)N1CCN(c2ncnc3c2C(C)CC3O)CC1)c1ccc(Cl)cc1 (stereo not drawn) + COc1c(OCCCN2CCOCC2)ccc2c3n(c(=NC(=O)c4cnc(N)nc4)nc12)CCN3
- IC50 (second compound 0.00316 µM): > 10 µM
- IC50 (second compound 0.01 µM): > 10 µM
- IC50 (second compound 0.0316 µM): > 10 µM
- IC50 (second compound 0.1 µM): > 10 µM
- IC50 (second compound 0.316 µM): < 0.0316 µM
- IC50 (second compound 1 µM): < 0.0316 µM
- viability, T/C [1]: 88.9%
- viability, T/C [2]: 110%
- viability, T/C [3]: 129%
- viability, T/C [4]: 106%
- viability, T/C [5]: 110%
- viability, T/C [6]: 90.3%
- viability, T/C [7]: 104%
- viability, T/C [8]: 109%
- viability, T/C [9]: 111%
- viability, T/C [10]: 87.7%
- viability, T/C [11]: 90.2%
- viability, T/C [12]: 86.6%
- viability, T/C [13]: 83.6%
- viability, T/C [14]: 125%
- viability, T/C [15]: 112%
- viability, T/C [16]: 103%
- viability, T/C [17]: 84%
- viability, T/C [18]: 101%
- viability, T/C [19]: 87.2%
- viability, T/C [20]: 106%
- viability, T/C [21]: 120%
- viability, T/C [22]: 80.5%
- viability, T/C [23]: 82.3%
- viability, T/C [24]: 86.1%
- viability, T/C [25]: 47.1%
- viability, T/C [26]: 51.6%
- viability, T/C [27]: 39.7%
- viability, T/C [28]: 44.6%
- viability, T/C [29]: 45.4%
- viability, T/C [30]: 36.8%
- viability, T/C [31]: 21%
- viability, T/C [32]: 21.3%
- viability, T/C [33]: 23.3%
- viability, T/C [34]: 20.9%
- viability, T/C [35]: 24.6%
- viability, T/C [36]: 21.6%

Compound: CCN1CCN(Cc2ccc(Nc3ncc(F)c(-c4cc(F)c5nc(C)n(C(C)C)c5c4)n3)nc2)CC1 + COc1c(OCCCN2CCOCC2)ccc2c3n(c(=NC(=O)c4cnc(N)nc4)nc12)CCN3
- IC50 (second compound 0.00316 µM): > 1 µM
- IC50 (second compound 0.01 µM): > 1 µM
- IC50 (second compound 0.0316 µM): 0.704 µM
- IC50 (second compound 0.1 µM): 0.199 µM
- IC50 (second compound 0.316 µM): < 0.00316 µM
- IC50 (second compound 1 µM): < 0.00316 µM
- viability, T/C (second compound 0.00316 µM, first compound 0.00316 µM): 107%
- viability, T/C (second compound 0.00316 µM, first compound 0.01 µM): 93.5%
- viability, T/C [1]: 104%
- viability, T/C [2]: 102%
- viability, T/C [3]: 87.6%
- viability, T/C [4]: 75.1%
- viability, T/C (second compound 0.01 µM, first compound 0.00316 µM): 119%
- viability, T/C (second compound 0.01 µM, first compound 0.01 µM): 128%
- viability, T/C [7]: 94.9%
- viability, T/C [8]: 115%
- viability, T/C [9]: 84%
- viability, T/C [10]: 66.2%
- viability, T/C (second compound 0.0316 µM, first compound 0.00316 µM): 120%
- viability, T/C (second compound 0.0316 µM, first compound 0.01 µM): 110%
- viability, T/C [13]: 92.9%
- viability, T/C [14]: 112%
- viability, T/C [15]: 69%
- viability, T/C [16]: 41.6%
- viability, T/C (second compound 0.1 µM, first compound 0.00316 µM): 105%
- viability, T/C (second compound 0.1 µM, first compound 0.01 µM): 91.8%
- viability, T/C [19]: 93.1%
- viability, T/C [20]: 72.7%
- viability, T/C [21]: 34.4%
- viability, T/C [22]: 22.1%
- viability, T/C (second compound 0.316 µM, first compound 0.00316 µM): 48.7%
- viability, T/C (second compound 0.316 µM, first compound 0.01 µM): 41.2%
- viability, T/C [25]: 39.5%
- viability, T/C [26]: 24.4%
- viability, T/C [27]: 20.2%
- viability, T/C [28]: 21.4%
- viability, T/C (second compound 1 µM, first compound 0.00316 µM): 21.7%
- viability, T/C (second compound 1 µM, first compound 0.01 µM): 20.8%
- viability, T/C [31]: 14.1%
- viability, T/C [32]: 17.9%
- viability, T/C [33]: 14.3%
- viability, T/C [34]: 16.3%

Compound: Cn1ncc(Cl)c1-c1cc(C(=O)NC(CN)Cc2cccc(F)c2)sc1Cl (stereo not drawn) + COc1c(OCCCN2CCOCC2)ccc2c3n(c(=NC(=O)c4cnc(N)nc4)nc12)CCN3
- IC50 (second compound 0.00316 µM): > 10 µM
- IC50 (second compound 0.01 µM): > 10 µM
- IC50 (second compound 0.0316 µM): 4.53 µM
- IC50 (second compound 0.1 µM): 2.66 µM
- IC50 (second compound 0.316 µM): < 0.0316 µM
- IC50 (second compound 1 µM): < 0.0316 µM
- viability, T/C [1]: 109%
- viability, T/C [2]: 75.3%
- viability, T/C [3]: 98.3%
- viability, T/C [4]: 110%
- viability, T/C [5]: 76.8%
- viability, T/C [6]: 50.6%
- viability, T/C [7]: 109%
- viability, T/C [8]: 102%
- viability, T/C [9]: 90.5%
- viability, T/C [10]: 86.6%
- viability, T/C [11]: 77.2%
- viability, T/C [12]: 53.3%
- viability, T/C [13]: 87.3%
- viability, T/C [14]: 82.5%
- viability, T/C [15]: 82.4%
- viability, T/C [16]: 68.9%
- viability, T/C [17]: 54.3%
- viability, T/C [18]: 41.4%
- viability, T/C [19]: 65.6%
- viability, T/C [20]: 84.9%
- viability, T/C [21]: 75.2%
- viability, T/C [22]: 73%
- viability, T/C [23]: 46%
- viability, T/C [24]: 32.2%
- viability, T/C [25]: 38.8%
- viability, T/C [26]: 34.8%
- viability, T/C [27]: 35.4%
- viability, T/C [28]: 28.8%
- viability, T/C [29]: 32.2%
- viability, T/C [30]: 26.1%
- viability, T/C [31]: 18.5%
- viability, T/C [32]: 18.8%
- viability, T/C [33]: 18.2%
- viability, T/C [34]: 19.6%
- viability, T/C [35]: 18.4%
- viability, T/C [36]: 14.2%

Compound: Cn1nccc1Nc1nccc(-c2ccn(C(CO)c3ccc(Cl)c(F)c3)c(=O)c2)n1 (stereo not drawn) + COc1c(OCCCN2CCOCC2)ccc2c3n(c(=NC(=O)c4cnc(N)nc4)nc12)CCN3
- IC50 (second compound 0.00316 µM): > 10 µM
- IC50 (second compound 0.01 µM): > 10 µM
- IC50 (second compound 0.0316 µM): > 10 µM
- IC50 (second compound 0.1 µM): > 10 µM
- IC50 (second compound 0.316 µM): < 0.0316 µM
- IC50 (second compound 1 µM): < 0.0316 µM
- viability, T/C [1]: 117%
- viability, T/C [2]: 108%
- viability, T/C [3]: 98.9%
- viability, T/C [4]: 83.7%
- viability, T/C [5]: 90.9%
- viability, T/C [6]: 80.7%
- viability, T/C [7]: 99%
- viability, T/C [8]: 93.7%
- viability, T/C [9]: 90.1%
- viability, T/C [10]: 136%
- viability, T/C [11]: 127%
- viability, T/C [12]: 84.2%
- viability, T/C [13]: 91.9%
- viability, T/C [14]: 102%
- viability, T/C [15]: 100%
- viability, T/C [16]: 89.1%
- viability, T/C [17]: 93.5%
- viability, T/C [18]: 89.2%
- viability, T/C [19]: 71%
- viability, T/C [20]: 75.9%
- viability, T/C [21]: 81.1%
- viability, T/C [22]: 82.2%
- viability, T/C [23]: 84.3%
- viability, T/C [24]: 64.9%
- viability, T/C [25]: 39.8%
- viability, T/C [26]: 45.6%
- viability, T/C [27]: 45.3%
- viability, T/C [28]: 41.7%
- viability, T/C [29]: 33.4%
- viability, T/C [30]: 27.8%
- viability, T/C [31]: 18.1%
- viability, T/C [32]: 19.8%
- viability, T/C [33]: 21.8%
- viability, T/C [34]: 18.6%
- viability, T/C [35]: 18.6%
- viability, T/C [36]: 16.8%
